Among the data in ChEMBL document CHEMBL4020814, “Synthesis, Binding Mode, and Antihyperglycemic Activity of Potent and Selective (5-Imidazol-2-yl-4-phenylpyrimidin-2-yl)[2-(2-pyridylamino)ethyl]amine Inhibitors of Glycogen Synthase Kinase 3” (J Med Chem, 2017) are EC50 and IC50 values, retold here.

Bounds are passed on as bounds.

Assay [1] can be described thus: Inhibition of GSK3 expressed in CHO-IR cells expressing human insulin receptor assessed as glycogen synthase activation after 30 mins by filter paper assay. It counts as cell-based, Cavia porcellus.
Assay [2] in a line: Inhibition of human GSK3 using biotin-CREB peptide substrate after 1 hr by scintillation counting method.

As a reminder, the EC50 is the concentration that produces a half-maximal response. By IC50 is commonly meant the concentration at which inhibition is half-maximal. A high value points to lower potency.

With `N#Cc1ccc(-c2nc(NCCNc3ccc([N+](=O)[O-])cn3)ncc2C(=O)O)cc1`, the EC50 in assay [1] was > 10000 nM. For the same compound, in assay [2], the IC50 was found to be 35 nM.

As for `Nc1nc(NCCNc2ncc(N3CCNCC3=O)c(-c3ccc(Cl)cc3Cl)n2)ccc1[N+](=O)[O-]`, the EC50 in assay [1] is 5410 nM. The compound further came in with an IC50 in assay [2] of 15 nM.

Turning to `Nc1nc(NCCNc2ncc(CN3CCOCC3)c(-c3ccc(Cl)cc3Cl)n2)ccc1[N+](=O)[O-]`, the EC50 in assay [1] was 840 nM. The half-maximal inhibitory concentration (IC50) in assay [2] came out at 17 nM.

In the case of `CC(=O)Nc1cnc(NCCNc2ccc([N+](=O)[O-])c(N)n2)nc1-c1ccc(Cl)cc1Cl`, the EC50 in assay [1] was 190 nM. In assay [2], this compound registered an IC50 of 6 nM.

`Cn1ccnc1-c1cnc(NCCNc2ccc([N+](=O)[O-])c(N)n2)nc1-c1ccc(Cl)cc1Cl`: the EC50 in assay [1] was 250 nM. The compound also displayed an IC50 in assay [2] of 1 nM.

Take `CCOC(=O)c1c(CC)nc(NCCNc2ccc([N+](=O)[O-])cn2)nc1-c1ccc(C(N)=O)cc1`: in assay [1], the EC50 was determined as 9600 nM. For the same compound, in assay [2], it took 120 nM to reach half-maximal inhibition (IC50).

In the case of `Cc1ccc(-c2nc(NCCNc3ccc([N+](=O)[O-])cn3)ncc2-n2ccnc2)cc1`, the EC50 in assay [1] turned out to be 300 nM. This compound displayed an IC50 in assay [2] of 34 nM.

Regarding `CCOC(=O)c1c(-c2ccc(C(N)=O)cc2)nc(NCCNc2ccc([N+](=O)[O-])cn2)nc1-c1ccc([N+](=O)[O-])cc1`, the EC50 in assay [1] came to 18000 nM. Moreover, the half-maximal inhibitory concentration (IC50) in assay [2] came to 150 nM.

With `O=[N+]([O-])c1ccc(NCCNc2ncc(-n3ccnc3)c(-c3ccc(F)cc3F)n2)nc1`, the EC50 in assay [1] came out at 900 nM. The same compound returned an IC50 in assay [2] of 31 nM.

Regarding `N#Cc1ccc(-c2nc(NCCNc3ccc([N+](=O)[O-])cn3)ncc2-n2cncn2)cc1`, the EC50 in assay [1] was determined as 1000 nM. The compound also registered an IC50 in assay [2] of 19 nM.

Regarding `N#Cc1ccc(-c2nc(NCCNc3ccc([N+](=O)[O-])cn3)ncc2C(N)=O)cc1`, the EC50 in assay [1] is > 10000 nM. In assay [2], this compound yielded an IC50 of 29 nM.

Turning to `Nc1nc(NCCNc2ncc(N3CCCC3=O)c(-c3ccc(Cl)cc3Cl)n2)ccc1[N+](=O)[O-]`, in assay [1], the EC50 worked out at 1580 nM. Half-maximal inhibition in assay [2] (IC50) was put at 6 nM.

With `CC(C)c1c[nH]c(-c2cnc(NCCNc3ccc([N+](=O)[O-])c(N)n3)nc2-c2ccc(Cl)cc2Cl)n1`, the EC50 in assay [1] worked out at 90 nM. This compound gave an IC50 in assay [2] of 21 nM.

In the case of `O=[N+]([O-])c1ccc(NCCNc2ncc(-c3nnn[nH]3)c(-c3ccc(Cl)cc3Cl)n2)nc1`, the EC50 in assay [1] came to 10000 nM. This compound also registered an IC50 in assay [2] of 31 nM.

In the case of `Nc1nc(NCCNc2ncc(NC(=O)CCCN3CCOCC3)c(-c3ccc(Cl)cc3Cl)n2)ccc1[N+](=O)[O-]`, the EC50 in assay [1] came out at 17700 nM. 24 nM corresponded to half-maximal inhibition in assay [2] (IC50).

As to `CS(=O)(=O)Nc1cnc(NCCNc2ccc([N+](=O)[O-])c(N)n2)nc1-c1ccc(Cl)cc1Cl`, the EC50 in assay [1] turned out to be 390 nM. This compound also registered an IC50 in assay [2] of 9 nM.

Regarding `CCOC(=O)c1c(CC)nc(NCCNc2ccc([N+](=O)[O-])cn2)nc1-c1ccc(C#N)cc1`, the EC50 in assay [1] amounted to 1700 nM. This compound showed a half-maximal inhibitory concentration (IC50) in assay [2] of 40 nM.

Consider `O=[N+]([O-])c1ccc(NCCNc2ncc(-n3ccnc3)c(-c3ccc(Cl)cc3)n2)nc1`, for which the EC50 in assay [1] came to 1200 nM. In assay [2], half-maximal inhibition (IC50) was put at 53 nM.

As to `O=[N+]([O-])c1ccc(NCCNc2ncc(-n3ccnc3)c(-c3ccc(Cl)cc3Cl)n2)nc1`, the EC50 in assay [1] is 300 nM. Further, the IC50 in assay [2] was found to be 6 nM.

For the compound `N#Cc1ccc(-c2nc(NCCNc3ccc([N+](=O)[O-])cn3)ncc2C(=O)NCCO)cc1`, the EC50 in assay [1] is > 10000 nM. Moreover, the IC50 in assay [2] came to 29 nM.

Turning to `COc1ccc(-c2nc(NCCNc3ccc([N+](=O)[O-])cn3)ncc2-n2ccnc2)c(OC)c1`, the concentration giving a half-maximal response (EC50) in assay [1] was 1500 nM. In addition, in assay [2], the half-maximal inhibitory concentration (IC50) is 27 nM.

Turning to `N#Cc1cnc(NCCNc2ncc(-n3ccnc3)c(-c3ccc(Cl)cc3Cl)n2)nc1N`, in assay [1], the EC50 was determined as 9440 nM. The IC50 in assay [2] was found to be 236 nM.

As to `CNC(=O)Nc1cnc(NCCNc2ccc([N+](=O)[O-])c(N)n2)nc1-c1ccc(Cl)cc1Cl`, the EC50 in assay [1] turned out to be 3000 nM. The compound also gave an IC50 in assay [2] of 27 nM.

Turning to `Nc1nc(NCCNc2ncc(-n3cccc(C(F)(F)F)c3=O)c(-c3ccc(Cl)cc3Cl)n2)ccc1[N+](=O)[O-]`, the EC50 in assay [1] is 40 nM. For the same compound, the IC50 in assay [2] is 4 nM.
